From PubChem BioAssay AID248 (DTP/NCI, 2004)
Several values for one entry are separate records, joined by “and”; a condition that tells them apart may be missing. Equal entries are not always repeated. Inconclusive results and toxic doses are left out. No stated cut-off is given here; in the data, active means T/C of 150% or more; inactive means T/C below 125%.

System: L1210 leukemia ip in BDF1 mice, survival T/C
Experiment: NCI In Vivo Anticancer Drug Screen. Data for tumor model L1210 Leukemia (intraperitoneal) in B6D2F1 (BDF1) mice
Details: endpoint: mean survival time, higher = longer survival
Summary of the method: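 In this screen, tumor-bearing mice given compound are compared to those given vehicle, and their survival values are reported as a treated-to-control quotient.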

[1] = dose: 100.0 mg/kg/injection, schedule: Q04DX003 (ip), vehicle: saline with Tween-80
[2] = dose: 200.0 mg/kg/injection, schedule: Q04DX003 (ip), vehicle: saline with Tween-80
[3] = dose: 100.0 mg/kg/injection, schedule: Q04DX002 (ip), vehicle: saline with Tween-80
[4] = dose: 200.0 mg/kg/injection, schedule: Q04DX002 (ip), vehicle: saline with Tween-80
[5] = dose: 100.0 mg/kg/injection, schedule: Q01DX009 (ip), vehicle: Klucel (hydroxypropylcellulose) (HPC)
[6] = dose: 200.0 mg/kg/injection, schedule: Q01DX009 (ip), vehicle: Klucel (hydroxypropylcellulose) (HPC)
[7] = dose: 400.0 mg/kg/injection, schedule: Q01DX009 (ip), vehicle: Klucel (hydroxypropylcellulose) (HPC)
[8] = dose: 100.0 mg/kg/injection, schedule: Q01DX009 (ip), vehicle: saline with Tween-80
[9] = dose: 200.0 mg/kg/injection, schedule: Q01DX009 (ip), vehicle: saline with Tween-80
[10] = dose: 400.0 mg/kg/injection, schedule: Q01DX009 (ip), vehicle: saline with Tween-80

Measured: T/C

CSC(NC(=O)c1ccc([N+](=O)[O-])cc1)C(N)=O (stereo not given)
inactive: dose: 50.0 mg/kg/injection, schedule: Q04DX002 (ip), vehicle: Klucel (hydroxypropylcellulose) (HPC) 102 % of control | dose: 100.0 mg/kg/injection, schedule: Q04DX002 (ip), vehicle: Klucel (hydroxypropylcellulose) (HPC) 106 % of control | dose: 200.0 mg/kg/injection, schedule: Q04DX002 (ip), vehicle: Klucel (hydroxypropylcellulose) (HPC) 109 % of control and 113 % of control | dose: 400.0 mg/kg/injection, schedule: Q04DX002 (ip), vehicle: Klucel (hydroxypropylcellulose) (HPC) 109 % of control

COc1cccc(C=Nc2ccc(N(C)C)cc2)c1O.COc1cccc(C=Nc2ccc(N(C)C)cc2)c1O.[Co]
inactive: dose: 50.0 mg/kg/injection, schedule: Q04DX003 (ip), vehicle: saline with Tween-80 88 % of control | [1] 88 % of control | [2] 98 % of control

COc1ccc(C(=O)P(=O)(OC)OC)cc1
inactive: [1] 106 % of control | [2] 104 % of control | dose: 400.0 mg/kg/injection, schedule: Q04DX003 (ip), vehicle: saline with Tween-80 98 % of control

COc1ccc2nc3ccccc3c(N)c2c1
inactive: dose: 5.0 mg/kg/injection, schedule: Q01DX001 (ip), vehicle: saline 100 % of control | dose: 10.0 mg/kg/injection, schedule: Q01DX001 (ip), vehicle: saline 100 % of control | dose: 20.0 mg/kg/injection, schedule: Q01DX001 (ip), vehicle: saline 97 % of control | dose: 40.0 mg/kg/injection, schedule: Q01DX001 (ip), vehicle: saline 90 % of control

COC(=O)/C=C1/OC(=O)CC1(C)C
inactive: dose: 100.0 mg/kg/injection, schedule: Q01DX001 (ip), vehicle: Klucel (hydroxypropylcellulose) (HPC) 106 % of control | dose: 100.0 mg/kg/injection, schedule: Q01DX009 (ip), vehicle: saline sonified 100 % of control | dose: 200.0 mg/kg/injection, schedule: Q01DX001 (ip), vehicle: Klucel (hydroxypropylcellulose) (HPC) 104 % of control | dose: 200.0 mg/kg/injection, schedule: Q01DX009 (ip), vehicle: saline sonified 96 % of control | dose: 400.0 mg/kg/injection, schedule: Q01DX001 (ip), vehicle: Klucel (hydroxypropylcellulose) (HPC) 107 % of control | dose: 400.0 mg/kg/injection, schedule: Q01DX009 (ip), vehicle: saline sonified 100 % of control

Cc1ccc(SSSc2ccc(C)cc2[N+](=O)[O-])c([N+](=O)[O-])c1
inactive: dose: 50.0 mg/kg/injection, schedule: Q04DX002 (ip), vehicle: saline with Tween-80 88 % of control | [3] 88 % of control | [4] 98 % of control

CCOP(=O)(CCCCN1C(=O)c2ccccc2C1=O)OCC
inactive: dose: 31.3 mg/kg/injection, schedule: Q01DX Z (ip), vehicle: saline 101 % of control | dose: 62.5 mg/kg/injection, schedule: Q01DX Z (ip), vehicle: saline 100 % of control | dose: 125.0 mg/kg/injection, schedule: Q01DX Z (ip), vehicle: saline 103 % of control | dose: 250.0 mg/kg/injection, schedule: Q01DX Z (ip), vehicle: saline 103 % of control | dose: 500.0 mg/kg/injection, schedule: Q01DX Z (ip), vehicle: saline 92 % of control

O=C(O)/C=C\c1c[nH]c2ccccc12 (tested in a mixture with another compound)
inactive: dose: 75.0 mg/kg/injection, schedule: Q01DX001 (ip), vehicle: saline 104 % of control | dose: 150.0 mg/kg/injection, schedule: Q01DX001 (ip), vehicle: saline 105 % of control | dose: 300.0 mg/kg/injection, schedule: Q01DX001 (ip), vehicle: saline 110 % of control

Cc1cccc(Cl)c1NC(=S)NCc1ccco1
inactive: [5] 98 % of control | [6] 98 % of control | [7] 102 % of control

O=C(Nc1ccc(NC(=O)Nc2cc(C(=O)Nc3ccc(C4=NCCN4)cc3)ccc2C(=O)Nc2ccc(C3=NCCN3)cc2)cc1)Nc1cc(C(=O)Nc2ccc(C3=NCCN3)cc2)ccc1C(=O)Nc1ccc(C2=NCCN2)cc1
inactive: dose: 100.0 mg/kg/injection, schedule: Q01DX Z (oral), vehicle: saline 93 % of control | dose: 120.0 mg/kg/injection, schedule: Q01DX Z (ip), vehicle: saline 120 % of control | dose: 200.0 mg/kg/injection, schedule: Q01DX Z (oral), vehicle: saline 98 % of control | dose: 400.0 mg/kg/injection, schedule: Q01DX Z (oral), vehicle: saline 101 % of control

NC(=O)c1ncn(C2OC(CO)C(O)C2O)c1N (stereo not given)
inactive: dose: 50.0 mg/kg/injection, schedule: Q01DX001 (ip), vehicle: saline 111 % of control | dose: 100.0 mg/kg/injection, schedule: Q01DX001 (ip), vehicle: saline 111 % of control | dose: 200.0 mg/kg/injection, schedule: Q01DX001 (ip), vehicle: saline 114 % of control

O=C(O)c1cc(-c2ccccc2)cc(Br)c1O
inactive: dose: 100.0 mg/kg/injection, schedule: Q01DX001 (ip), vehicle: carboxymethylcellulose (CMC) 93 % of control | dose: 200.0 mg/kg/injection, schedule: Q01DX001 (ip), vehicle: carboxymethylcellulose (CMC) 95 % of control

Cc1ccc(NC(=O)SCc2ccccc2)c([N+](=O)[O-])c1
inactive: [5] 98 % of control | [6] 100 % of control | [7] 93 % of control

CC1(C)OC2OC(COC(=O)c3ccc([N+](=O)[O-])cc3)C(OC(=O)c3ccc([N+](=O)[O-])cc3)C2O1 (stereo not given)
inactive: dose: 100.0 mg/kg/injection, schedule: Q01DX001 (ip), vehicle: steriod suspending solution 87 % of control | dose: 200.0 mg/kg/injection, schedule: Q01DX001 (ip), vehicle: steriod suspending solution 95 % of control | dose: 400.0 mg/kg/injection, schedule: Q01DX001 (ip), vehicle: steriod suspending solution 104 % of control

C/C(=C\c1ccc([N+](=O)[O-])cc1)C(=O)Nc1ccc(S(=O)(=O)F)cc1
inactive: [8] 95 % of control | [9] 93 % of control | [10] 98 % of control

O=C1CCCCC/C1=C1\C(=O)Nc2ccc(Br)cc21
inactive: [8] 107 % of control | [3] 105 % of control | [9] 100 % of control | [4] 105 % of control | [10] 93 % of control | dose: 400.0 mg/kg/injection, schedule: Q04DX002 (ip), vehicle: saline with Tween-80 97 % of control

NC(N)=NC(N)=Nc1ccccc1-c1ccccc1
inactive: [5] 111 % of control | [6] 103 % of control | [7] 86 % of control

O=S(=O)(NCCNS(=O)(=O)c1ccccc1)c1ccccc1
inactive: [8] 96 % of control | [9] 94 % of control | [10] 95 % of control

CC(=O)C1C(=O)OC(C)=C(C(=O)O)C1=O (stereo not given)
inactive: dose: 50.0 mg/kg/injection, schedule: Q01DX009 (ip), vehicle: saline with Tween-80 102 % of control | [8] 100 % of control | [1] 92 % of control | [2] 103 % of control

CCC[CH2][Sn]([CH2]CCC)([O]C(C)=O)[O]C(C)=O
inactive: dose: 3.0 mg/kg/injection, schedule: Q01DX009 (ip), vehicle: saline 106 % of control | dose: 6.12 mg/kg/injection, schedule: Q01DX009 (ip), vehicle: saline 101 % of control | dose: 12.5 mg/kg/injection, schedule: Q01DX009 (ip), vehicle: saline 108 % of control | dose: 25.0 mg/kg/injection, schedule: Q01DX009 (ip), vehicle: saline 89 % of control

CN=C(NCc1ccccc1)c1ccc(NC(=O)c2ccc(C(=O)Nc3ccc(C(=NC)NCc4ccccc4)cc3)c(Cl)c2)cc1
inactive: dose: 2.0 mg/kg/injection, schedule: Q01DX Z (ip), vehicle: carboxymethylcellulose (CMC) 92 % of control | dose: 4.0 mg/kg/injection, schedule: Q01DX Z (ip), vehicle: carboxymethylcellulose (CMC) 105 % of control | dose: 8.0 mg/kg/injection, schedule: Q01DX Z (ip), vehicle: carboxymethylcellulose (CMC) 105 % of control
